The NIST ThermoML archive (doi:10.1021/je200646r)
± gives the expanded uncertainty stated by the source.

Legend:
[1] = 293.15 K; 101.33 kPa; Liquid; Vibrating tube method
[2] = refractive index (Na D-line) (dimensionless); details: 293.15 K; 101.33 kPa; Liquid; Standard Abbe refractometry

| mass density [1] [kg/m3] | refractive index [2] | SMILES |
| --- | --- | --- |
| 749.6 ± 0.31 | 1.42155 ± 0.00045 | CCCCCCCCCCCC [dodecane] |
| 792.05 ± 0.15 | 1.36162 ± 0.0004 | CCO [ethanol] |
| 791.46 ± 0.15 | 1.32862 ± 0.0004 | CO [methanol] |
| 785.46 ± 0.15 | 1.37709 ± 0.0004 | CC(C)O [propan-2-ol] |
